US20140141456A1, “PAPP-A2 AS A MARKER FOR MONITORING, PREDICTING AND DIAGNOSING PREECLAMPSIA” (Ansh Labs, LLC, priority 2012, published 2014)

Assays:
PAPP-A2 = PAPP-A2 (Homo sapiens, UniProt Q9BXP8)
Description: Medium from 293T cells transfected with empty vector (lane 1), cDNA encoding PAPP-A2 with an inactivating E734Q mutation (pPA2-KO) (lane 2), or cDNA encoding wild-type PAPP-A2 (pPA2) (lanes 3-6) was incubated with C-terminally c-myc tagged rIGFBP-5. Proteolytic activity was assessed by Western blotting using anti-c-myc. ‘i’ denotes intact rIGFBP-5; ‘c’ denotes the detectable C-terminal c-myc tagged cleavage product.
Briefly, recombinant IGFBP-5 as contained in 5 microL cell culture medium was incubated with culture supernatants (10 microL) from cells transfected with pPA2, pPA2-KO, or empty expression vectors (see U.S. Pat. No. 7,083,940). Phosphate buffered saline was added to a final volume of 50 microL. After incubation at 37 degrees Celsius for 12 hours, 15 microL of the reaction mixture was separated by reducing 16% SDS-PAGE, blotted onto a PVDF membrane, and the C-terminal cleavage product was detected with monoclonal anti-c-myc (clone 9E19, ATTC) using peroxidase-conjugated secondary antibodies (P260, DAKO), and enhanced chemiluminescence (ECL, Amersham).

IGFBP-3 = test: Activity of PAPP-A2 against IGFBPs, ligand blotting using radiolabeled IGF-II; format: biochemical; conditions: medium from 293T cells transfected with pPA2
Description: (§1) Ligand blotting (Conover et al., 1993, J Clin Invest 91, 1129-37) with radiolabeled IGF-II (Bachem) was used to assay for activity against IGFBP-1 (from HepG2 conditioned medium), rIGFBP-2 (GroPep), rIGFBP-3 (gift of D. Powell), rIGFBP-4 (Austral), rIGFBP-5 (gift of D. Andress), and rIGFBP-6 (Austral). […] IGFBP-3 was partially degraded (FIG. 10). This cleavage was independent of the presence of IGF. Experiments were carried out with media from cells transfected with pPA2 or empty vector.
(§2) Medium from 293T cells transfected with empty vector (−), or cDNA encoding PAPP-A2 (pPA2) (+) was incubated with each of the six IGFBPs (BP1-BP6), and the activity was assessed by ligand blotting using radiolabeled IGF-II.

IGFBP-5 = test: as above; format: biochemical; conditions: medium from 293T cells transfected with pPA2
Description: as §1, §2

rIGFBP-5 = test: Proteolytic activity of PAPP-A2 against IGFBP-5, Western blotting using anti-c-myc; format: biochemical, human; conditions: absence of inhibitors; medium from 293T cells transfected with pPA2

PAPP-A2, sequence (Q9BXP8 234-1791 limits assumed): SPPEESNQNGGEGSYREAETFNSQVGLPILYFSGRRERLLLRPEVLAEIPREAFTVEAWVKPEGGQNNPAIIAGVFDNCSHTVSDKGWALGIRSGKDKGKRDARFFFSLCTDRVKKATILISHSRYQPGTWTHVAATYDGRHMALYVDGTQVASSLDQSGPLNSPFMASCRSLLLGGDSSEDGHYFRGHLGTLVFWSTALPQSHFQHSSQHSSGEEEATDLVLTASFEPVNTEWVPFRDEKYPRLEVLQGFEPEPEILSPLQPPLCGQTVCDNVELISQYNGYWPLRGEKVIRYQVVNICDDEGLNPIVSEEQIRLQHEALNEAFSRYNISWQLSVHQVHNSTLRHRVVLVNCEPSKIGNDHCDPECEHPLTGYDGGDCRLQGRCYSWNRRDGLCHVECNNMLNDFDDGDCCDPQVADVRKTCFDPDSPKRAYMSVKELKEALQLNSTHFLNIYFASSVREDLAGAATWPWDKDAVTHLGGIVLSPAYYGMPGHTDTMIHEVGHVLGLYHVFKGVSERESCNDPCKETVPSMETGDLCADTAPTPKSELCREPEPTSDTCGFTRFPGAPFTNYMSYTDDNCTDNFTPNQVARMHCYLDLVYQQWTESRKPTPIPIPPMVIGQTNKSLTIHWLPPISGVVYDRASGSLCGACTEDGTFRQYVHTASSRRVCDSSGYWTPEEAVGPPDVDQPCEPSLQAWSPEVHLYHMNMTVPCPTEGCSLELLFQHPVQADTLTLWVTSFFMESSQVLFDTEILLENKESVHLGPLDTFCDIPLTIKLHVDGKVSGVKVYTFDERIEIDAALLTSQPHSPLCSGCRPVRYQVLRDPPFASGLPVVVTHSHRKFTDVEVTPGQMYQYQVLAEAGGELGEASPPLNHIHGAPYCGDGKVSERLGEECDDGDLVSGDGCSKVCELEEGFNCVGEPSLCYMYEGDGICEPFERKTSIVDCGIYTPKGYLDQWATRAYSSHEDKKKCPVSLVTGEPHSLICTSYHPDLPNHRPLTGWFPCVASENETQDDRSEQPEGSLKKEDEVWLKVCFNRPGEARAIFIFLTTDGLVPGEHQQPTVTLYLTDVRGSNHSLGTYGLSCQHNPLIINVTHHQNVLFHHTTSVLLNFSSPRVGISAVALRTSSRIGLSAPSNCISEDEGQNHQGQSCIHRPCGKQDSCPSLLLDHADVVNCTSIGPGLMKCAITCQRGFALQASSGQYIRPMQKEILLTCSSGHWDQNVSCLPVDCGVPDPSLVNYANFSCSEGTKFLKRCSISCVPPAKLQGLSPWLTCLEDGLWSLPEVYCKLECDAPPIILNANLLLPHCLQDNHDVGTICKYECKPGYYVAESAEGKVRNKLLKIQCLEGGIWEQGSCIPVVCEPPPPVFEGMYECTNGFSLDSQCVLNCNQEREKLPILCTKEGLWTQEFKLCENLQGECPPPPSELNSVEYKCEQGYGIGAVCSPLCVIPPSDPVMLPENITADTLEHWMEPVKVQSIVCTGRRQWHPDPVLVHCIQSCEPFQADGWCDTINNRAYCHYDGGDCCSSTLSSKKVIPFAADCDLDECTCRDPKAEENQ

Row | PAPP-A2 activity (degradation of rIGFBP-5) (PAPP-A2) | Molecule | Degradation of IGFBP-3 (IGFBP-3) | Cleavage of IGFBP-5 (IGFBP-5) | Degradation of rIGFBP-5 (rIGFBP-5)
1 | not affected | O=c1oc(Cl)c(Cl)c2ccccc12 [3,4-DCI] | – | – | –
2 | abolished | c1cnc2c(c1)ccc1cccnc12 [phenanthroline] | – | – | –
3 | – | PAPP-A2: recombinant wild-type PAPP-A2 metalloproteinase in medium from 293T cells transfected with cDNA (pPA2) | Partial degradation | Complete cleavage | degraded all rIGFBP-5
